According to patent EP0180500A1, “Thieno and furo[2,3-c]pyrrole derivatives, process for their preparation and medicaments containing them” (LIPHA, LYONNAISE INDUSTRIELLE PHARMACEUTIQUE, priority 1984, dated 1986):

How the values were obtained:
[1] = tested on: récepteurs histaminiques H2; test: Histamine-induced gastric hyperacidity in the anaesthetised rat;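 on all read-outs here: Read-out is the continuously recorded acidity of a saline perfusate flowing through the stomach and collected at the pylorus, with at least 3 rats per dose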; settings: for DE 50 et limites à 95 %: dose reducing histamine-induced hyperacidity by 50 %, histamine infusion 25 µg/kg/minute, single i.v. dose, measured at peak action, 95 % limits in brackets; for Puissance relative Ranitidine = 1: relative potency from DE 50 I.V.
Experimental: Hyperacidité gastrique à l'histamine chez le rat anesthésié : (Black et Coll., Nature, 1972, 236, 385) : Des rats anesthésiés à l'éthylurétane reçoivent une perfusion continue d'histamine (25 µg/kg/minute)dans une veine jugulaire. L'estomac est continuellement perfusé par du sérum physiologique à 37°C, sous un débit constant de 3 ml/minute.
Une canule pylorique collecte le perfusat dont l'acidité est mesurée de façon continue. Chaque composé à examiner est administré par la voie intraveineuse (une seule dose par rat).L'inhibition de l'acidité est mesurée au délai correspondant au maximum d'action (délai variable d'un composé à un autre). Un minimum de 3 rats est utilisé pour chaque dose essayée. On détermine, pour chaque composé actif de l'invention, la dose diminuant de 50 % (DE 50), l'hyperacidité induite par l'histamine. On mesure en outre, pour les composés les plus actifs, la durée d'action résultant de l'injection intraveineuse d'une dose unique correspondant à la DE 50 arrondie.

acidité gastrique = test: Pylorus-ligated rats according to Shay (gastric antisecretory test); settings: Rattus norvegicus, ip, 4 h, read-out: DE 50 et limites à 95 %
Source text: Quatre heures plus tard, les animaux sont sacrifiés et le contenu des estomacs prélevé pour mesure de l'acidité. Les composés sont injectés intrapéritonéalement, juste après la ligature du pylore. La dose abaissant l'acidité gastrique de 50 % (DE 50) est calculée pour chaque composé, par rapport à un lot non traité. Chaque composé est testé à 3 doses géamétriquement espacées. Chaque lot comprend 10 rats.

[2] = molecular target: récepteurs histaminiques H2 (Cavia porcellus, UniProt P47747); test: Isolated guinea-pig atrium (histamine chronotropic effect, H2 blockade)
récepteurs histaminiques H2 (Cavia porcellus, UniProt P47747), sequence (P47747 whole entry): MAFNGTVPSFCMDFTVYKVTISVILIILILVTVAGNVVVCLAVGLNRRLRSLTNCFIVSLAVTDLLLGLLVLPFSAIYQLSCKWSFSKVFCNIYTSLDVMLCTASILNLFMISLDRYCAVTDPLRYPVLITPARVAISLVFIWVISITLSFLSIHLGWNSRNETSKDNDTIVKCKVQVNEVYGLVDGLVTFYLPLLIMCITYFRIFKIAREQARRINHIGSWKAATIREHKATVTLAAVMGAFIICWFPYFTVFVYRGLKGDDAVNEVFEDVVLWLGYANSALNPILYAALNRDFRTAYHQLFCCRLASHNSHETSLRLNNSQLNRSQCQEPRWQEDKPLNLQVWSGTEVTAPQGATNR
Experimental: Oreillette isolée de cobaye : Des cobayes albinos pesant entre 300 et 400 g sont assomés et saignés. Après ouverture du thorax, l'oreillette droite est rapidement dégagée et placée dans une cuve à organe isolé contenant 100 ml de Krebs (composition en g/1 : NaCl 6,9 - KCl 0,35 - CaCl2 0,28 - Mg SO4 0,14 - NaHCO3 2,09 - KH2 P04 0,16, glucose 2) maintenu à 32°C et fortement oxygéné (95 % 02, 5 % CO2).
L'oreillette est reliée à une jauge de contrainte isométrique, sous une tension de 1 g. Les battements spontanés sont enregistrés sur un enregistreur galvanométrique.
Après une période de stabilisation de 1 heure, des doses cumulées d'histamine sont ajoutées au milieu de survie, toutes les 5 minutes, ce qui occasionne une accélération des battements par stimulation des récepteurs de l'histamine qui, dans les tissus cardiaques sont de nature H2. L'histamine est ajoutée jusqu'à ce que le rythme de l'oreillette n'augmente plus (effet maximum). On peut alors tracer la courbe représentant la variation du rythme en fonction de la concentration d'histamine dans le bain. Après rinçages et repos de 30 minutes, la même expérimentation est reprise 30 minutes après avoir ajouté un antagoniste H2 dans le bain (composé de l'invention ou produit de référence) .
Chaque composé est ainsi testé à 3 concentrations géométriquement croissantes qui provoquent, en cas de blocage des récepteurs H2, un déplacement vers la droite des courbes concentration d'histamine/effet chronotrope. Pour chaque composé actif, nous déterminons un pA2, c'est à dire le cologarithme de la concentration du composé de l'essai pour laquelle il faut doubler la concentration d'histamine afin de retrouver un effet chronotrope donné. […] Un minimum de 3 oreillettes est utilisé pour chaque composé essayé.
Cette préparation permet aussi de se rendre compte de la nature, réversible ou non, de l'inhibition. Dans le premier cas, il sera toujours possible de déplacer l'antagoniste des récepteurs en pratiquant des rinçages répétés ou en utilisant une concentration plus forte d'histamine, ce qui se traduira par des courbes concentration d'histamine/ef- fet chronotrope, parallèles mais supexposables.
Par contre, dans le deuxième cas (inhibition difficilement réversible), l'antagonisme H2 ne peut être complètement levé, ni par rinçages ni par des concentrations élevées d'histamine, ce qui se traduit par des courbes dose/effet non superposables (l'effet chronotrope maximum est de plus en plus faible quand la concentration de l'antagoniste H2 croit).

rats = settings: rat, in vivo, iv
Source text: (§1) Les composés de l'invention sont en général très peu toxiques.

souris = settings: in vivo, iv
Source text: as §1

| Compound | DE 50 et limites à 95 % [1] | ED50 (acidité gastrique) [mg/kg] | Kb [2] [nM] | Puissance relative Ranitidine = 1 [1] | effet toxique (rats) | effet toxique (souris) |
| --- | --- | --- | --- | --- | --- | --- |
| CNC(=NC#N)NCCSCc1[nH]cnc1C [Cimétidine, reference compound] | 0,4 (0,18-0,9) mg/kg/I.V. | 42 | – | – | – | – |
| CNC(=C[N+](=O)[O-])NCCCOc1cccc2c1CCN(C)C2 [Composé A, N-méthyl N' - [(méthyl-2 tétrahydro-1,2,3,4 isoqwnoléine-5 oxy)-3 propyl] nitro-2 éthène diamine-1,1, reference compound] | > 5 mg/kg/I.V. | > 50 | 1320 | – | – | – |
| CCN1Cc2cc(CSCCNC(=NC#N)NC)sc2C1 [Exemple 1] | 0,6 (0,25-1,5) mg/kg/I.V. | 19 | 105 | 0,15 | – | – |
| CCN1Cc2cc(CSCCNC(=C[N+](=O)[O-])NC)sc2C1 [Exemple 3, N-[ [ (Ethyl-5 dihydro-5,6-4H-thiéno [2,3-c]pyrrolyl-2)méthylthio]-2 éthyl]N'-méthyl nitro-2 éthènediamine-1,1] | 0,3 (0,1 -0,9) mg/kg/I.V. | 8 | 77.6 | 0,3 | – | – |
| CCN1Cc2cc(CSCCC(N)=NS(N)(=O)=O)sc2C1 [Exemple 8, [ (Ethyl-5 dihydro-5,6-4H-thiéno [2,3-c]pyrrolyl-2)méthylthio]-3 N-sulfamoyl propanamidine] | 0,5 (0,18-1,4) mg/kg/I.V. | 18 | 129 | 0,18 | – | – |
| CCN1Cc2cc(CSCCNc3nc(N)nn3C)sc2C1 [Exemple 11] | 0,4 (0,15-1) mg/kg/I.V. | – | – | 0,22 | – | – |
| CCN1Cc2cc(CSCCNc3n[s+]([O-])nc3N)sc2C1 (centres unmarked) [Exemple 13, N-[ [ (Ethyl-5 dihydro-5,6-4H-thiéno [2,3-c]pyrrolyl-2)méthylthio]-2 éthyl] oxyde-1 thiadiazole [1,2,5,] diamine-3,4] | 0,03 (0,02-0,05) mg/kg/I.V. | 1.5 | 20.9 | 3 | – | – |
| CCCCCN1Cc2cc(CSCCNC(=C[N+](=O)[O-])NC)sc2C1 [Exemple 18, N-[ [ (Dihydro-5,6 n.pentyl-5-4H-thiéno [2,3-c]pyrrolyl-2)méthylthio]-2 éthyl]N'-méthyl nitro-2 éthène diamine-1,1] | 0,5 (0,17-1,5) mg/kg/I.V. | 15 | 89.1 | 0,18 | – | – |
| CCN1Cc2sc(CSCCNC(=C[N+](=O)[O-])NC)c(C)c2C1 [Exemple 19] | > 5 mg/kg/I.V. | > 50 | 1260 | – | – | – |
| CCN1Cc2cc(CSCCNc3n[s+]([O-])nc3NC)sc2C1 (centres unmarked) [Exemple 20, N-[ [ (Ethyl-5 dihydro-5,6-4H-thiéno [2,3-c]pyrrolyl-2)méthylthio]-2 éthyl]N'-méthyl oxyde-1 thiadiazole-[1,2,5] diamine-3,4] | 0,1 (0,03-0,3) mg/kg/I.V. | 20 | 42.7 | 0,9 | – | – |
| C#CCNc1n[s+]([O-])nc1NCCSCc1cc2c(s1)CN(CC)C2 (centres unmarked) [Exemple 21, N-[ [ (Ethyl-5 dihydro-5,6-4H-thiéno [2,3-c]pyrrolyl-2)méthylthio]-2 éthyl] N'-propargyl oxyde-1 thiadiazole [1,2,5] diamine-3,4] | 0,6 (0,3 -1,2) mg/kg/I.V. | 32 | 79.4 | 0,15 | – | – |
| CCCN1Cc2cc(CSCCNc3n[s+]([O-])nc3N)sc2C1 (centres unmarked) [Exemple 22] | 0,05 (0,02-0,11) mg/kg/I.V. | 0.5 | 17 | 1,8 | aucun effet toxique | aucun effet toxique |
| CCCCN1Cc2cc(CSCCNc3n[s+]([O-])nc3N)sc2C1 (centres unmarked) [Exemple 28] | 0,2 (0,08-0,5) mg/kg/I.V. | 1 | 42.7 | 0,45 | – | – |
| CCCCCCN1Cc2cc(CSCCNc3n[s+]([O-])nc3N)sc2C1 (centres unmarked) [Exemple 30, N-[ [ (n.Hexyl-5 dihydro-5,5-4H-thiéno [2,3-c]pyrrolyl-2)méthylthio]-2 éthyl] oxyde-1 thiadiazole [1,2,5] diamine-3,4] | 0,2 (0,07-0,6) mg/kg/I.V. | 0.5 | 64.6 | 0,45 | – | – |
| CCCCCN1Cc2cc(CSCCNc3n[s+]([O-])nc3N)sc2C1 (centres unmarked) [Exemple 31] | 0,15 (0,07-0,3) mg/kg/I.V. | 3.6 | 30.9 | 0,6 | – | – |
| COCCN1Cc2cc(CSCCNc3n[s+]([O-])nc3N)sc2C1 (centres unmarked) [Exemple 33, N-[ [ [Dihydro-5,6 (méthoxy-2 éthyl) -5-4H-thiéno [2,3-c]pyrolyl-2]méthylthio]-2 éthyl] oxyde-1 thiadiazole [1,2,5] diamine-3,4] | 0,2 (0,08-0,5) mg/kg/I.V. | 0.7 | 49 | 0,45 | – | – |
| CCCN1Cc2cc(CSCCNc3c(N)c(=O)c3=O)sc2C1 [Exemple 34, Amino-3 [ [ (dihydro-5,6 n.propyl-5-4H-thiéno [2,3-c]pyrrolyl-2)méthylthio]-2 éthylamino]-4 cyclobutène dione-1,2] | 0,25 (0,12-0,5) mg/kg/I.V. | 11 | 63.1 | 0,36 | – | – |
| CNC(=C[N+](=O)[O-])NCCSCc1ccc(CN(C)C)o1 [Ranitidine, reference compound] | 0,09 (0,05-0,17) mg/kg/I.V. | 14 | 36.3 | 1 | – | – |
| N-Cyano N' -[ [ (dihydro-5,6 isopropyl-5-4H-thiéno [2,3-c] pyrrolyl-2) méthylthio]-2 éthyl] N" méthyl guanidine [Exemple 6] | > 5 mg/kg/I.V. | – | – | – | – | – |
| N-[ [ (Isobutyl-5 dihydro-5,6-4H-thiéno [ 2,3-c ] pyrrolyl-2) méthylthio ]-2 éthyl J oxyde-1 thiadiazole [ 1,2,5 ] diamine-3,4 [Exemple 29] | 0,1 (0,04-0,25) mg/kg/I.V. | – | – | 0,9 | – | – |
